Assay results reported in publication PMC8041284, “Tunable Methacrylamides for Covalent Ligand Directed Release Chemistry” (Journal of the American Chemical Society, 2021).
Read-outs that look alike come from different tables or passages of the source. *1 amine or outer side, *2 acyl side, *3 side chain or, on linkers, in order; H or OH if unused. Where a SMILES comes first, the peptide text is derived from it. Bridges are numbered along the chain shown (N, C = ends). [ ]: non-standard residue; d: D form. The star is where a group is joined. Orn(4R-OH,5R-OH) = O=C([C@H](C[C@@H](O)[C@@H](O)N[*:3])N[*:1])[*:2]; Tetradecanoyl(10R,12S-Me2) = CC[C@H](C)C[C@H](C)CCCCCCCCC(=O)*; hTyr(3S-OH,4S-OH) = N[C@H](C(=O)O)[C@H](O)[C@@H](O)c1ccc(O)cc1; Gln(3R-OH) = NC(=O)C[C@@H](O)[C@H](N)C(=O)O; Pro(3S-OH) = O=C(O)[C@H]1NCC[C@@H]1O; Hyp = O=C(O)[C@@H]1C[C@@H](O)CN1

Target: BTK (Homo sapiens, UniProt Q06187)
Sequence (Q06187 402-655 limits assumed): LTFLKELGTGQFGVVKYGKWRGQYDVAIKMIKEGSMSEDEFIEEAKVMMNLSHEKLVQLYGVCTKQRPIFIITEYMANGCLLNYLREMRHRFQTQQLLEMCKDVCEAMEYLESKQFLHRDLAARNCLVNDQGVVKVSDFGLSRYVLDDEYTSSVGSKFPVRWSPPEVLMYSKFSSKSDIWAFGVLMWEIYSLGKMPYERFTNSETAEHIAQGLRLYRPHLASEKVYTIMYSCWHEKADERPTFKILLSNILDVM
Assay: biochemical
[1] = read-out: BTK inhibition (%), 0.75 uM BTK, […] probe 3l, 15 min preincubation

SMILES	inhibition at 10 µM [1] [%]	inhibition at 10 µM (read-out: BTK inhibition (%)) [%]
CCc1cc(/C(C)=N/OCc2ccc(C3CCCCC3)c(C(F)(F)F)c2)ccc1CN1CC(C(=O)O)C1 [PCM-0215423]	-62.8	
Oc1cc(O)c2c(c1)OC(c1ccc(O)c(O)c1)C(OC1(c3ccc(O)c(O)c3)Oc3cc(O)cc(O)c3C(O)C1O)C2 (stereo not shown) [PCM-0215931]	85.7	
Cc1[nH]c2ccccc2c1CCNCc1ccc(/C=C/C(=O)NO)cc1 [PCM-0095679]	0.8	
O=C(O)CNC(=O)c1ccccc1 [PCM-0216220]	20.8	
CCCCCCCCCCCCCCCCCCOP(=O)([O-])OC1CC[N+](C)(C)CC1 [PCM-0215183]	-46.8	
NC[C@@](O)(c1ccc(Cl)cc1)c1ccc(-c2cn[nH]c2)cc1 [PCM-0215408]	-10.3	
CCOC(=O)c1csc(Nc2ccc(Cl)cc2)n1 [PCM-0215549]	17.8	
CC(=O)c1ccccc1O [PCM-0216621]	0.8	
O=C(NCc1cccc(O)c1)Nc1nc(-c2ccncc2)cs1 [PCM-0095724]	-4.8	
C=C1CCC[C@]2(C)C[C@]3(O)OC(=O)C(C)=C3C[C@@H]12 [PCM-0216544]	6.9	
CC(C)=CCC[C@@](C)(O)[C@H]1CC[C@]2(C)[C@@H]1[C@H](O)C[C@@H]1[C@@]3(C)CC[C@H](O[C@@H]4O[C@H](CO)[C@@H](O)[C@H](O)[C@H]4O)C(C)(C)[C@@H]3CC[C@]12C [PCM-0216344]	-23.2	
CC(=O)CCc1ccc(OC(C)=O)cc1 [PCM-0216104]	-10.8	
Cc1ccc(=O)n(-c2ccccc2)c1 [PCM-0064803]	20.7	
Cc1ccccc1C(=O)Nc1ccc(C(=O)N2CCCC(O)c3cc(Cl)ccc32)c(C)c1 (stereo not shown) [PCM-0095415]	4.7	
OC(c1ccccc1)(c1ccccc1)C12CC[N+](CCOCc3ccccc3)(CC1)CC2 [PCM-0214921]	-34.2	
COC(=O)c1ccco1 [PCM-0216224]	-23.9	
COc1ccc(/C=C/c2cc(OC)cc(=O)o2)cc1 [PCM-0216316]	-2.3	
O=c1c2cc(O[C@@H]3O[C@H](CO)[C@@H](O)[C@H](O)[C@H]3O)c(O)cc2oc2cc(O)c([C@@H]3O[C@H](CO)[C@@H](O)[C@H](O)[C@H]3O)c(O)c12 [PCM-0214972]	-3.1	
CC(C)[C@H](N)C(=O)OCC(CO)OCn1cnc2c(=O)[nH]c(N)nc21 (stereo partly shown) [PCM-0214750]	-2.3	
O=c1cc(-c2ccc(O)c(O)c2)oc2cc(O)c([C@@H]3O[C@H](CO)[C@@H](O)[C@H](O)[C@H]3O)c(O)c12 [PCM-0216497]	-4.6	
Cc1oncc1C(=O)Nc1ccc(C(F)(F)F)cc1 [PCM-0065349]	-5.5	
C=C(C)[C@@H]1CC[C@]2(C(=O)O)CC[C@]3(C)[C@H](CC[C@@H]4[C@@]5(C)CCC(=O)C(C)(C)[C@@H]5CC[C@]43C)[C@@H]12 [PCM-0215047]	66.9	

SMILES	inhibition at 10 µM [1] [%]	inhibition at 10 µM (read-out: BTK inhibition (%)) [%]
C[C@H]1CCC/C=C/[C@@H]2C[C@H](O)C[C@H]2[C@H](O)/C=C/C(=O)O1 [PCM-0095573]	0.8	
NCc1c[nH]c(=S)n1[C@@H]1CCc2c(F)cc(F)cc2C1 [PCM-0214808]	4.7	
COc1ccc(CCC(=O)Nc2nc3ccc(Cl)cc3s2)cc1OC [PCM-0095584]	-0.8	
O=C(COc1cccc2c(=O)[nH]ccc12)c1ccccc1 [PCM-0095624]	5.4	
O=C(O)c1cc(O)c2c(c1)[C@@H]([C@H]1c3cc(C(=O)O)cc(O)c3C(=O)c3c(O[C@@H]4O[C@H](CO)[C@@H](O)[C@H](O)[C@H]4O)cccc31)c1cccc(O[C@@H]3O[C@H](CO)[C@@H](O)[C@H](O)[C@H]3O)c1C2=O [PCM-0086913]	84.1	
O=C(Nc1ccc([N+](=O)[O-])cc1)Nc1ccc([N+](=O)[O-])cc1 [PCM-0215156]	-14	
C[C@]12CCC3=C4CCC(=O)C=C4CC[C@H]3[C@@H]1CC[C@@]2(O)CC#N [PCM-0095005]	-11.7	
CC(=O)O[C@H](CC=C(C)C)C1=CC(=O)c2c(O)ccc(O)c2C1=O [PCM-0216503]	35.7	
COc1cc2c(Nc3ccc(NC(=O)c4ccccc4)cc3)ncnc2cc1OCCCN1CCOCC1 [PCM-0094881]	77.9	
O=C(NC[C@H]1CN(c2ccc(N3CCOCC3=O)cc2)C(=O)O1)c1ccc(Cl)s1 [PCM-0095448]	4.7	
C[Si](C)(C)CCOCn1ccc2c(-c3cn[nH]c3)ncnc21 [PCM-0216552]	-40.9	
C=C1/C(=C\C=C2/CCC[C@]3(C)[C@@H]([C@H](C)/C=C/[C@@H](O)C4CC4)CC[C@@H]23)C[C@@H](O)C[C@@H]1O [PCM-0214926]	1.6	
Clc1ccc(C(c2c[nH]c3ccccc23)c2c[nH]c3ccccc23)cc1 [PCM-0215640]	71.7	
CC(COc1ccccc1Cc1ccccc1)N1CCCCC1 (stereo not shown) [PCM-0216136]	-17	
O=c1ccc2ccc(O)cc2[nH]1 [PCM-0216227]	7.8	
O=c1[nH]c2ccccc2o1 [PCM-0216203]	5.4	
C[C@@H](O)[C@H]1C(=O)N2C(C(=O)[O-])=C(SC3Cn4cnc[n+]4C3)[C@H](C)[C@H]12 (stereo partly shown) [PCM-0215353]	-18.7	
CC(=O)Oc1cc(C(F)(F)F)ccc1C(=O)O [PCM-0065558]	-8.6	
CC(C)=CCC[C@](C)(O[C@@H]1O[C@H](CO[C@@H]2OC[C@H](O)[C@H](O)[C@H]2O)[C@@H](O)[C@H](O)[C@H]1O)[C@H]1CC[C@]2(C)[C@@H]1[C@H](O)C[C@@H]1[C@@]3(C)CC[C@H](O[C@@H]4O[C@H](CO)[C@@H](O)[C@H](O)[C@H]4O[C@@H]4O[C@H](CO)[C@@H](O)[C@H](O)[C@H]4O)C(C)(C)[C@@H]3CC[C@]12C [PCM-0216375]	7.7	
CC(C)N1CCN(Cc2cnc(-c3cc(-c4cccc5[nH]ccc45)cc4[nH]ncc34)o2)CC1 [PCM-0213407]	51.7	
C=CC(=O)Nc1cccc(Oc2nc(Nc3ccc(N4CCN(C)CC4)cc3OC)ncc2Cl)c1 [PCM-0095043]	89	
CC(C)(O)[C@H]1CC[C@@](C)([C@H]2[C@@H](O)C[C@@]3(C)[C@@H]4C[C@H](O[C@@H]5O[C@H](CO)[C@@H](O)[C@H](O)[C@H]5O)[C@H]5C(C)(C)[C@@H](O[C@@H]6OC[C@@H](O)[C@H](O)[C@H]6O)CC[C@@]56C[C@@]46CC[C@]23C)O1 [PCM-0214684]	5.4	

SMILES	inhibition at 10 µM [1] [%]	inhibition at 10 µM (read-out: BTK inhibition (%)) [%]
CC[C@H](C)[C@H](N)C(=O)O [PCM-0215927]	7.7	
C[C@]12CCC(=O)C(O)=C1CC[C@@H]1[C@@H]2CC[C@]2(C)C(=O)CC[C@@H]12 [PCM-0214668]		-1.4
CC(C)=C[C@H]1C[C@](C)(O)[C@@H]2[C@H]3CC[C@@H]4[C@@]5(C)CC[C@H](O[C@@H]6OC[C@H](O)[C@H](O[C@@H]7O[C@H](CO[C@@H]8O[C@H](CO)[C@@H](O)[C@H](O)[C@H]8O)[C@@H](O)[C@H](O)[C@H]7O[C@@H]7OC[C@@H](O)[C@H](O)[C@H]7O)[C@H]6O[C@@H]6O[C@@H](C)[C@H](O)[C@@H](O)[C@H]6O)C(C)(C)[C@@H]5CC[C@@]4(C)[C@@]34CO[C@@]2(C4)O1 [PCM-0216469]	10	
C[C@@H]1CC[C@@]2(NC1)O[C@H]1C[C@H]3[C@@H]4CC=C5C[C@@H](O[C@@H]6O[C@H](CO)[C@@H](O[C@@H]7O[C@@H](C)[C@H](O)[C@@H](O)[C@H]7O)[C@H](O)[C@H]6O)CC[C@]5(C)[C@H]4CC[C@]3(C)[C@H]1[C@@H]2C [PCM-0216606]		-6.9
CC[C@H]1OC(=O)[C@@](C)(F)C(=O)[C@H](C)[C@@H](O[C@@H]2O[C@H](C)C[C@H](N(C)C)[C@H]2O)[C@](C)(OC)C[C@@H](C)C(=O)[C@H](C)[C@H]2N(CCCCn3cc(-c4cccc(N)c4)nn3)C(=O)O[C@]12C [PCM-0216086]	-22.1	
Nc1ccc(O)cc1 [PCM-0216110]	82.6	
CCNC(=O)c1noc(-c2cc(C(C)C)c(O)cc2O)c1-c1ccc(CN2CCOCC2)cc1 [PCM-0095017]	-0.7	
CO/N=C(\C(=O)N[C@@H]1C(=O)N2C(C(=O)O)=C(CSc3nnnn3C)CS[C@H]12)c1csc(N)n1 [PCM-0214827]	8.6	
Nc1[nH]c(=O)ncc1Br [PCM-0216584]	8.5	
Cc1cccc(C)c1N(CC(=O)Nc1ccc(-c2ncon2)cc1)C(=O)C1CCS(=O)(=O)CC1 [PCM-0216196]	2.3	
C=CC(=O)Nc1cc(Nc2nccc(-n3cc(CN(C)C)c(-c4ccccc4)n3)n2)c(OC)cc1N1CCOCC1 [PCM-0216259]	11.1	
CN1CC[C@@H](NC(=O)Nc2ccc(C#N)cc2)C[C@@H]1c1nc2ccccc2[nH]1 [PCM-0215365]	-3.9	
OCCN(CCO)c1nc(N2CCCCC2)c2nc(N(CCO)CCO)nc(N3CCCCC3)c2n1 [PCM-0065264]	10.9	
CO/N=C(\C(=O)N[C@@H]1C(=O)N2C(C(=O)[O-])=C(C[n+]3cccc4c3CCC4)CS[C@H]12)c1csc(N)n1 [PCM-0214899]	-4.7	
C=CC(=O)Nc1cccc(Oc2nc(Nc3ccc(N4CCN(C)CC4)cc3)nc3ccsc23)c1 [PCM-0215661]	105	
COc1ccc2c(c1)=C(CC(=O)N1CCOCC1)C(C)(C(=O)c1ccc(Cl)cc1)N=2 (stereo not shown) [PCM-0095476]	-2.3	
CO/N=C1\C[C@]2(C[C@@H]3C[C@@H](C/C=C(\C)C[C@@H](C)/C=C/C=C4\CO[C@@H]5[C@H](O)C(C)=C[C@@H](C(=O)O3)[C@]45O)O2)O[C@H](/C(C)=C/C(C)C)[C@H]1C [PCM-0214892]	16.3	
CC[C@H](C)C[C@H](C)CCCCCCCCC(=O)N[C@H]1C[C@@H](O)[C@@H](O)NC(=O)[C@@H]2[C@@H](O)CCN2C(=O)[C@H]([C@H](O)CC(N)=O)NC(=O)[C@H]([C@H](O)[C@@H](O)c2ccc(O)cc2)NC(=O)[C@@H]2C[C@@H](O)CN2C(=O)[C@H]([C@@H](C)O)NC1=O [PCM-0216459] ({Tetradecanoyl(10R,12S-Me2)}-[Orn(4R-OH,5R-OH)]T[Hyp][hTyr(3S-OH,4S-OH)][Gln(3R-OH)][Pro(3S-OH)]; lactam 1-C)	-42.5	
NC(=O)c1noc([C@H](CCCC2CCCCC2)CC(=O)NO)n1 [PCM-0095693]	10.1	
O=C(O)c1ccc(-n2nc(-c3ccccc3O)nc2-c2ccccc2O)cc1 [PCM-0095168]	36.6	
